20 molecules from patent publication US10428083B2, “Heterocyclylmethyl-thienouracile as antagonists of the adenosine-A2B-receptor” (BAYER PHARMA AKTIENGESELLSCHAFT, priority 2015, dated 2019) can be followed below.

The target of this test is human adenosine A2b receptor (Homo sapiens (Human), UniProt P29275). Kind of test: Cellular in vitro reporter gene test for A2b receptor activity (CHO-K1, CRE-luciferase, NECA stimulation). In kind it is cell-based. The following applies: recombinant CHO-K1 cell line, CRE-luciferase reporter, antagonism of EC50 concentration of NECA; in some cases means of several determinations, rounded to two significant figures; read-out: A2b receptor IC50. An outline of the steps: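 CHO-K1 cells with CRE-driven luciferase; antagonists co-incubated with NECA at its EC50, determined in a pre-experiment on each test day. Luciferase read by luminescence 3 h after NECA addition.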
(In general: A reporter such as luciferase makes a cellular process visible.)

pIC50: −log10 of the molar value.

Chain of human adenosine A2b receptor (P29275 whole entry): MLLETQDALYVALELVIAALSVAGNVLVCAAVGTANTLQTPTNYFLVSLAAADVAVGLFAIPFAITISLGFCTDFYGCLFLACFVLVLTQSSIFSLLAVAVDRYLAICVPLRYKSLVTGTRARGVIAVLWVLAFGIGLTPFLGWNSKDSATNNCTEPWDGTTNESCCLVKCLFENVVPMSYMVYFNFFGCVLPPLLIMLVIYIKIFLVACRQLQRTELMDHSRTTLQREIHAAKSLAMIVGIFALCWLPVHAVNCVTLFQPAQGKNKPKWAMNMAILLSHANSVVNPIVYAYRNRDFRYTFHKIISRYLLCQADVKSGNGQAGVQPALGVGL

Broadly, the pIC50 is the IC50 on a negative log10 scale, so that one unit is a factor of ten. For the molecule `Cc1c(Cn2nc[nH]c2=O)sc2c1c(=O)n(C(C)C)c(=O)n2CF` [Example 422, 1-(Fluoromethyl)-3-isopropyl-5-methyl-6-[(5-oxo-4,5-dihydro-1H-1,2,4-triazol-1-yl)methyl]thieno[2,3-d]pyrimidine-2,4(1H,3H)-dione], the pIC50 was 6.77. The figure for `Cc1c(Cn2nc[nH]c2=O)sc2c1c(=O)n(C(C)C)c(=O)n2CCCF` [Example 423, 1-(3-Fluoropropyl)-3-isopropyl-5-methyl-6-[(5-oxo-4,5-dihydro-1H-1,2,4-triazol-1-yl)methyl]thieno[2,3-d]pyrimidine-2,4(1H,3H)-dione] is 7.26. As for `Cc1c(Cn2nc[nH]c2=O)sc2c1c(=O)n(CC(C)(C)C)c(=O)n2CCC(F)(F)F` [Example 427, 3-(2,2-Dimethylpropyl)-5-methyl-6-[(5-oxo-4,5-dihydro-1H-1,2,4-triazol-1-yl)methyl]-1-(3,3,3-trifluoropropyl)thieno[2,3-d]pyrimidine-2,4(1H,3H)-dione], the figure is 7.43. As to `COCCn1c(=O)n(CC(C)(C)C)c(=O)c2c(C)c(Cn3nc[nH]c3=O)sc21` [Example 428, 3-(2,2-Dimethylpropyl)-1-(2-methoxyethyl)-5-methyl-6-[(5-oxo-4,5-dihydro-1H-1,2,4-triazol-1-yl)methyl]thieno[2,3-d]pyrimidine-2,4(1H,3H)-dione], the pIC50 was 6.92. Take `Cc1c(Cn2nc[nH]c2=O)sc2c1c(=O)n(CC(F)(F)F)c(=O)n2CCC(F)(F)F` [Example 432, 5-Methyl-6-[(5-oxo-4,5-dihydro-1H-1,2,4-triazol-1-yl)methyl]-3-(2,2,2-trifluoroethyl)-1-(3,3,3-trifluoropropyl)thieno[2,3-d]pyrimidine-2,4(1H,3H)-dione]: the pIC50 was 7.04.

`COCCn1c(=O)n(CC(F)(F)F)c(=O)c2c(C)c(Cn3nc[nH]c3=O)sc21` [Example 433, 1-(2-Methoxyethyl)-5-methyl-6-[(5-oxo-4,5-dihydro-1H-1,2,4-triazol-1-yl)methyl]-3-(2,2,2-trifluoroethyl)thieno[2,3-d]pyrimidine-2,4(1H,3H)-dione]: the pIC50 was 7.24.

Turning to `COCCn1c(=O)c2c(C)c(Cn3nc[nH]c3=O)sc2n(CCC(F)(F)F)c1=O` [Example 439, 3-(2-Methoxyethyl)-5-methyl-6-[(5-oxo-4,5-dihydro-1H-1,2,4-triazol-1-yl)methyl]-1-(3,3,3-trifluoropropyl)thieno[2,3-d]pyrimidine-2,4(1H,3H)-dione], the pIC50 is 6.74. On to `Cc1c(CN2CCNC2=NC#N)sc2c1c(=O)n(CC(C)(C)C)c(=O)n2CCC(F)(F)F` [Example 443, [1-{[3-(2,2-Dimethylpropyl)-5-methyl-2,4-dioxo-1-(3,3,3-trifluoropropyl)-1,2,3,4-tetrahydrothieno[2,3-d]pyrimidin-6-yl]methyl}imidazolidin-2-ylidene]cyanamide], for which the pIC50 is 8.13. `Cc1c(CN2CCNC2=NC#N)sc2c1c(=O)n(CC(C)(C)C)c(=O)n2CCCF` [Example 444, [1-{[3-(2,2-Dimethylpropyl)-1-(3-fluoropropyl)-5-methyl-2,4-dioxo-1,2,3,4-tetrahydrothieno[2,3-d]pyrimidin-6-yl]methyl}imidazolidin-2-ylidene]cyanamide]: the pIC50 was 7.96. In the case of `COCCn1c(=O)n(CC(C)(C)C)c(=O)c2c(C)c(CN3CCNC3=NC#N)sc21` [Example 445, [1-{[3-(2,2-Dimethylpropyl)-1-(2-methoxyethyl)-5-methyl-2,4-dioxo-1,2,3,4-tetrahydrothieno[2,3-d]pyrimidin-6-yl]methyl}imidazolidin-2-ylidene]cyanamide], the negative-log IC50 (pIC50) was 7.92. As to `CCOCCn1c(=O)c2c(C)c(CN3CCNC3=NC#N)sc2n(CCCF)c1=O` [Example 453, [1-{[3-(2-Ethoxyethyl)-1-(3-fluoropropyl)-5-methyl-2,4-dioxo-1,2,3,4-tetrahydrothieno[2,3-d]pyrimidin-6-yl]methyl}imidazolidin-2-ylidene]cyanamide], the negative-log IC50 (pIC50) was 7.14. As for `COC(=O)N=C1NCCN1Cc1sc2c(c1C)c(=O)n(CC(C)(C)C)c(=O)n2CCC(F)(F)F` [Example 461, Methyl [1-{[3-(2,2-dimethylpropyl)-5-methyl-2,4-dioxo-1-(3,3,3-trifluoropropyl)-1,2,3,4-tetrahydrothieno[2,3-d]pyrimidin-6-yl]methyl}imidazolidin-2-ylidene]carbamate], the figure is 8.04; as for `COCCn1c(=O)n(CC(C)(C)C)c(=O)c2c(C)c(CN3CCNC3=NC(=O)OC)sc21` [Example 462, Methyl [1-{[3-(2,2-dimethylpropyl)-1-(2-methoxyethyl)-5-methyl-2,4-dioxo-1,2,3,4-tetrahydrothieno[2,3-d]pyrimidin-6-yl]methyl}imidazolidin-2-ylidene]carbamate], 7.80.

Consider `Cc1c(CN2CCNC(=O)C2=O)sc2c1c(=O)n(C(C)C)c(=O)n2CCC(F)(F)F` [Example 478, 6-[(2,3-Dioxopiperazin-1-yl)methyl]-3-isopropyl-5-methyl-1-(3,3,3-trifluoropropyl)thieno[2,3-d]pyrimidine-2,4(1H,3H)-dione], for which the pIC50 is 7.39.

With `COCCn1c(=O)n(C(C)C)c(=O)c2c(C)c(CN3CCNC(=O)C3=O)sc21` [Example 479, 6-[(2,3-Dioxopiperazin-1-yl)methyl]-3-isopropyl-1-(2-methoxyethyl)-5-methylthieno[2,3-d]pyrimidine-2,4(1H,3H)-dione], the pIC50 was 6.85.

In the case of `COCCn1c(=O)n(CC(F)(F)F)c(=O)c2c(C)c(CN3CCNC(=O)C3=O)sc21` [Example 486, 6-[(2,3-Dioxopiperazin-1-yl)methyl]-1-(2-methoxyethyl)-5-methyl-3-(2,2,2-trifluoroethyl)thieno[2,3-d]pyrimidine-2,4(1H,3H)-dione], the negative-log IC50 (pIC50) is 6.72. `CCOCCn1c(=O)c2c(C)c(CN3CCNC(=O)C3=O)sc2n(CCCF)c1=O` [Example 492, 6-[(2,3-Dioxopiperazin-1-yl)methyl]-3-(2-ethoxyethyl)-1-(3-fluoropropyl)-5-methylthieno[2,3-d]pyrimidine-2,4(1H,3H)-dione]: the pIC50 is 6.60. Turning to `Cc1c(CN2CCN(C(C)C)C(=O)C2=O)sc2c1c(=O)n(CC(C)C)c(=O)n2CCCF` [Example 496, 1-(3-Fluoropropyl)-3-isobutyl-6-[(4-isopropyl-2.3-dioxopiperazin-1-yl)methyl]-5-methylthieno[2,3-d]pyrimidine-2,4(1H,3H)-dione], the pIC50 was 6.92. For `CCn1c(=O)c2c(C)c(CN3CC(=O)NCC3=O)sc2n(CCC(F)(F)F)c1=O` [Example 497, 6-[(2,5-Dioxopiperazin-1-yl)methyl]-3-ethyl-5-methyl-1-(3,3,3-trifluoropropyl)thieno[2,3-d]pyrimidine-2,4(1H,3H)-dione], the pIC50 was 6.14.

With `[2H]C([2H])(c1sc2c(c1C)c(=O)n(CC(F)(F)F)c(=O)n2CCOC)N1CCNC1=O` [Example 500, 1-(2-Methoxyethyl)-5-methyl-6-[(2-oxoimidazolidin-1-yl)(dideutero)methyl]-3-(2,2,2-trifluoroethyl)thieno[2,3-d]pyrimidine-2,4(1H,3H)-dione], the pIC50 is 8.00.
